Reference: ChEMBL document CHEMBL3751834, “Insight to the binding mode of triazole RGD-peptidomimetics to integrin-rich cancer cells by NMR and molecular modeling” (Bioorg Med Chem, 2016)
The source made the active and inactive calls. No cut-off for these calls is given here.

Legend:
Integrin alpha-V/beta-3 [1] = target: T1, Integrin alpha-V/beta-3 (Homo sapiens, UniProt P05106+P06756); assay: Binding affinity to integrin alphavbeta3 receptor in human ECV304 cells by STD-NMR analysis; type: cell-based; details: ECV-304
Integrin alpha-V/beta-3 [2] = target: T1, Integrin alpha-V/beta-3; assay: Displacement of 125-I-echistatin from human placental integrin alphavbeta3 receptor incubated for 3 hrs by microplate scintillation counting analysis

Activity (Integrin alpha-V/beta-3 [1]) | IC50H (Integrin alpha-V/beta-3 [2]) [nM] | IC50L (Integrin alpha-V/beta-3 [2]) [nM] | IC50 (Integrin alpha-V/beta-3 [2]) [nM] | SMILES
Active | – | – | 221 | O=C(O)C[C@H](NC(=O)Cn1cc(CCCNc2ccccn2)nn1)c1ccc(O)cc1
Active | – | – | – | O=C(O)C[C@H](NC(=O)Cn1cc(CCCNc2nc3ccccc3[nH]2)nn1)c1ccc(O)cc1
Active | – | – | – | N=C(N)NCCCc1cn(CC(=O)N[C@@H](CC(=O)O)c2ccc(O)cc2)nn1

Second part, the compound before the results:

SMILES | Activity (Integrin alpha-V/beta-3 [1]) | IC50H (Integrin alpha-V/beta-3 [2]) [nM] | IC50L (Integrin alpha-V/beta-3 [2]) [nM] | IC50 (Integrin alpha-V/beta-3 [2]) [nM]
N=C(N)NCCCc1cn(CC(=O)N[C@@H](CC(=O)O)c2ccccc2)nn1 | Active | – | – | –
O=C(O)C[C@H](NC(=O)Cn1cc(CCCNc2nc3ccccc3[nH]2)nn1)c1ccccc1 | Active | 12 | 1120 | –
O=C(O)C[C@H](NC(=O)Cn1cc(CCCNc2ccccn2)nn1)c1ccccc1 | Active | 13 | 900 | –
